{"source": "patent US11985932B2", "about": "(priority 2019, dated 2024)", "key": {"[1]": {"test_system": "rice blast fungus (Magnaporthe grisea strain K-06)", "format": "in vivo", "conditions": "for hyphal elongation of rice blast fungus in the leaf sheath / blast resistance: progeny (third generation; R2) of treated lines, 150 μM (salicylic acid 1 mM), vs Nipponbare, FIG. 11B; for hyphal elongation of Magnaporthe oryzae in the leaf sheath / disease resistance: regenerated rice individuals, callus treated at 150 μM (salicylic acid 1 mM), P<0.05, FIG. 11A"}, "WRKY45 gene": {"test_system": "WRKY45 gene", "assay": "RNA-seq of probenazole-treated rice callus (WRKY45 induction)", "format": "cell-based, Oryza sativa cv. Nipponbare", "conditions": "7th day after probenazole treatment (50, 100 or 150 μM) on dedifferentiation-inducing medium"}, "Botrytis cinerea [2]": {"test_system": "Botrytis cinerea", "assay": "Botrytis cinerea inoculation of Nicotiana benthamiana leaves, lesion area", "format": "in vivo"}, "[3]": {"test_system": "Pseudomonas syringae pv. tabaci", "assay": "Pseudomonas syringae pv. tabaci inoculation of Nicotiana benthamiana leaves, CFU", "format": "in vivo", "conditions": "R0 plant of Nicotiana benthamiana of callus treated with probenazole"}, "Botrytis cinerea [4]": {"test_system": "Botrytis cinerea", "assay": "Botrytis cinerea inoculation of tomato leaves, lesion area", "format": "in vivo", "conditions": "regenerated tomato (Micro-Tom) lines, callus treated with 200 μM probenazole; vs WT"}, "rice callus": {"test_system": "rice callus", "assay": "Callus survival and redifferentiation under probenazole treatment"}}}
{"compound": "CSC(=O)c1cccc2nnsc12", "note": "[acibenzolar S-methyl]", "values": [{"measurement": "hyphal elongation of rice blast fungus in the leaf sheath / blast resistance", "setting": "[1]", "result": "significant blast resistance"}, {"measurement": "hyphal elongation of Magnaporthe oryzae in the leaf sheath / disease resistance", "setting": "[1]", "result": "significant disease resistance"}]}
{"compound": "N#Cc1ccccc1NC(=O)c1snc(Cl)c1Cl", "note": "[isothianil, isotianil]", "values": [{"measurement": "hyphal elongation of rice blast fungus in the leaf sheath / blast resistance", "setting": "[1]", "result": "significant blast resistance"}, {"measurement": "hyphal elongation of Magnaporthe oryzae in the leaf sheath / disease resistance", "setting": "[1]", "result": "significant disease resistance"}]}
{"compound": "C=CCOC1=NS(=O)(=O)c2ccccc21", "note": "[probenazole, 3-prop-2-enoxy-1,2-benzothiazole 1,1-dioxide]", "values": [{"measurement": "expression of the WRKY45 gene in callus", "setting": "WRKY45 gene", "result": "induced"}, {"measurement": "hyphal elongation of rice blast fungus in the leaf sheath / blast resistance", "setting": "[1]", "result": "significant blast resistance"}, {"measurement": "hyphal elongation of Magnaporthe oryzae in the leaf sheath / disease resistance", "setting": "[1]", "result": "significant disease resistance"}, {"measurement": "Botrytis cinerea resistance", "setting": "Botrytis cinerea [2]; R1, self-fertilized progeny of R0, Nicotiana benthamiana", "result": "Significant Botrytis cinerea resistance"}, {"measurement": "expansion of lesions of Botrytis cinerea", "setting": "Botrytis cinerea [2]; current generation (R0) of regenerated Nicotiana benthamiana, callus treated with 200 μM probenazole 7 to 21 days, vs wild type", "result": "significantly suppressed"}, {"measurement": "growth of Pseudomonas syringae pv. tabaci", "setting": "[3]", "result": "markedly suppressed"}, {"measurement": "lesion expansion of Botrytis cinerea in tomato leaves", "setting": "Botrytis cinerea [4]", "result": "significantly suppressed"}, {"measurement": "number of meristems formed in callus and appearance rate of regenerated plants", "setting": "rice callus; compared to control not treated with probenazole", "result": "no significant difference"}, {"measurement": "redifferentiation from callus", "setting": "rice callus; probenazole treatment in dedifferentiation or redifferentiation process", "result": "not inhibited"}, {"measurement": "callus survival rate", "setting": "rice callus; probenazole-treated rice callus vs control callus", "result": 100, "unit": "%"}]}
{"compound": "O=C(O)c1ccccc1O", "note": "[salicylic acid]", "values": [{"measurement": "hyphal elongation of rice blast fungus in the leaf sheath / blast resistance", "setting": "[1]", "result": "significant blast resistance"}, {"measurement": "hyphal elongation of Magnaporthe oryzae in the leaf sheath / disease resistance", "setting": "[1]", "result": "significant disease resistance"}]}
{"compound": "Cc1ccc(NC(=O)c2snnc2C)cc1Cl", "note": "[tiadinil]", "values": [{"measurement": "hyphal elongation of rice blast fungus in the leaf sheath / blast resistance", "setting": "[1]", "result": "significant blast resistance"}, {"measurement": "hyphal elongation of Magnaporthe oryzae in the leaf sheath / disease resistance", "setting": "[1]", "result": "significant disease resistance"}]}
